# Measurements published in patent publication EP0333351A2, “Platinum coordination compounds” (JOHNSON MATTHEY PUBLIC LIMITED COMPANY, priority 1988, dated 1989).
# System: ADJ/PC6 tumour
# Experiment: Antitumour activity against the ADJ/PC6 tumour in mice, intraperitoneal route (LD50, ED90, T.I.)
# Format: in vivo
# Settings: for ED90: Table 1, ADJ/PC6 tumour in mice; for LD50: Table 1, mice
# Method: The invention will now be described by way of example only. A selection of compounds according to the invention were prepared by the above-described method, and were characterised by elemental analysis and infra red spectroscopy. The compounds were compared against known compounds and against each other for activity against the ADJ/PC6 tumour in mice, when given by the intraperitoneal route and the results are tabulated below.
Structure (SMILES),ED90 [mg/kg],LD50 [mg/kg]
N.N.[Cl][Pt]([Cl])([Cl])[Cl] [Comparison A],3.4,18
NC1CCCCC1.NC1CCCCC1.[Cl][Pt]([Cl])([Cl])[Cl] [Comparison B],10,190
